Each molecule was assayed on nuOXPHOS transcripts. Conditions: normalized composite Z-score vs mock-treated (DMSO) wells; Conc 20 μM.
Assay type: cell-based, mouse

Point of comparison: COc1c(-c2ccccc2)oc2c(OC)cccc2c1=O [3,8-dimethoxyflavone], nucOX 0.315. Against it:
- COc1c2c(cc3occ(-c4ccc5c(c4)OCO5)c(=O)c13)OC(C)(C)C=C2 [methyl robustone, reference compound] — lower, 0.075
- CC(=O)O[C@]1(C)CC[C@@]23C[C@@H]1C(C)(C)[C@@H]2CC[C@H]3C [cedryl acetate] — lower, 0.184
- CC(C)C1COc2cc3oc(=O)ccc3cc2O1 (stereo not shown) [dihydro-obliquin] — lower, 0.192
- C[C@@H]1O[C@@H](O[C@H]2[C@H](Oc3cc(O)c4c(=O)cc(-c5ccc(O)cc5)oc4c3)O[C@H](CO)[C@@H](O)[C@@H]2O)[C@H](O)[C@H](O)[C@H]1O [rhoifolin] — lower, −0.774

These molecules were tested on mtOXPHOS transcripts. Conditions: normalized composite Z-score vs mock-treated (DMSO) wells; Conc 20 μM.
Assay type: cell-based, mouse

Point of comparison: CC(C)C1COc2cc3oc(=O)ccc3cc2O1 (stereo not shown) [dihydro-obliquin], mitoOX 0.303. Against it:
- COc1c2c(cc3occ(-c4ccc5c(c4)OCO5)c(=O)c13)OC(C)(C)C=C2 [methyl robustone, reference compound] — lower, −0.063
- CC(=O)O[C@]1(C)CC[C@@]23C[C@@H]1C(C)(C)[C@@H]2CC[C@H]3C [cedryl acetate] — lower, −0.149
- C[C@@H]1O[C@@H](O[C@H]2[C@H](Oc3cc(O)c4c(=O)cc(-c5ccc(O)cc5)oc4c3)O[C@H](CO)[C@@H](O)[C@@H]2O)[C@H](O)[C@H](O)[C@H]1O [rhoifolin] — lower, −0.768
- COc1c(-c2ccccc2)oc2c(OC)cccc2c1=O [3,8-dimethoxyflavone] — higher, 0.492

These molecules were tested on reactive oxygen species. Conditions: normalized composite Z-score vs mock-treated (DMSO) wells; Conc 20 μM.
Assay type: cell-based, mouse

Point of comparison: COc1c2c(cc3occ(-c4ccc5c(c4)OCO5)c(=O)c13)OC(C)(C)C=C2 [methyl robustone, reference compound], ROS −0.347. Against it:
- CC(=O)O[C@]1(C)CC[C@@]23C[C@@H]1C(C)(C)[C@@H]2CC[C@H]3C [cedryl acetate] — higher, 1.566
- CC(C)C1COc2cc3oc(=O)ccc3cc2O1 (stereo not shown) [dihydro-obliquin] — higher, 1.045
- C[C@@H]1O[C@@H](O[C@H]2[C@H](Oc3cc(O)c4c(=O)cc(-c5ccc(O)cc5)oc4c3)O[C@H](CO)[C@@H](O)[C@@H]2O)[C@H](O)[C@H](O)[C@H]1O [rhoifolin] — higher, 0.471
- COc1c(-c2ccccc2)oc2c(OC)cccc2c1=O [3,8-dimethoxyflavone] — higher, 1.553

These molecules were tested on OXPHOS gene expression. Conditions: normalized composite Z-score vs mock-treated (DMSO) wells; Conc 20 μM.
Assay type: cell-based, mouse

Point of comparison: CC(C)C1COc2cc3oc(=O)ccc3cc2O1 (stereo not shown) [dihydro-obliquin], GE-HTS 0.233. Against it:
- COc1c2c(cc3occ(-c4ccc5c(c4)OCO5)c(=O)c13)OC(C)(C)C=C2 [methyl robustone, reference compound] — lower, 0.033
- CC(=O)O[C@]1(C)CC[C@@]23C[C@@H]1C(C)(C)[C@@H]2CC[C@H]3C [cedryl acetate] — lower, 0.067
- C[C@@H]1O[C@@H](O[C@H]2[C@H](Oc3cc(O)c4c(=O)cc(-c5ccc(O)cc5)oc4c3)O[C@H](CO)[C@@H](O)[C@@H]2O)[C@H](O)[C@H](O)[C@H]1O [rhoifolin] — lower, −0.838
- COc1c(-c2ccccc2)oc2c(OC)cccc2c1=O [3,8-dimethoxyflavone] — higher, 0.399

These molecules were tested on mitochondrial membrane potential. Conditions: normalized composite Z-score vs mock-treated (DMSO) wells; Conc 20 μM.
Assay type: cell-based, mouse

Point of comparison: C[C@@H]1O[C@@H](O[C@H]2[C@H](Oc3cc(O)c4c(=O)cc(-c5ccc(O)cc5)oc4c3)O[C@H](CO)[C@@H](O)[C@@H]2O)[C@H](O)[C@H](O)[C@H]1O [rhoifolin], ΔΨm −0.213. Against it:
- COc1c2c(cc3occ(-c4ccc5c(c4)OCO5)c(=O)c13)OC(C)(C)C=C2 [methyl robustone, reference compound] — higher, 0.715
- CC(=O)O[C@]1(C)CC[C@@]23C[C@@H]1C(C)(C)[C@@H]2CC[C@H]3C [cedryl acetate] — higher, −0.042
- CC(C)C1COc2cc3oc(=O)ccc3cc2O1 (stereo not shown) [dihydro-obliquin] — higher, −0.159
- COc1c(-c2ccccc2)oc2c(OC)cccc2c1=O [3,8-dimethoxyflavone] — higher, −0.103

These molecules were tested on C2C12 myotubes. Conditions: normalized composite Z-score vs mock-treated (DMSO) wells; Conc 20 μM.

Point of comparison: COc1c2c(cc3occ(-c4ccc5c(c4)OCO5)c(=O)c13)OC(C)(C)C=C2 [methyl robustone, reference compound], Viability 0.848. Against it:
- CC(=O)O[C@]1(C)CC[C@@]23C[C@@H]1C(C)(C)[C@@H]2CC[C@H]3C [cedryl acetate] — lower, −0.311
- CC(C)C1COc2cc3oc(=O)ccc3cc2O1 (stereo not shown) [dihydro-obliquin] — lower, −0.141
- C[C@@H]1O[C@@H](O[C@H]2[C@H](Oc3cc(O)c4c(=O)cc(-c5ccc(O)cc5)oc4c3)O[C@H](CO)[C@@H](O)[C@@H]2O)[C@H](O)[C@H](O)[C@H]1O [rhoifolin] — lower, 0.089
- COc1c(-c2ccccc2)oc2c(OC)cccc2c1=O [3,8-dimethoxyflavone] — higher, 0.930

Each molecule was assayed on cellular dehydrogenase activity. Conditions: normalized composite Z-score vs mock-treated (DMSO) wells; Conc 20 μM.

Point of comparison: COc1c(-c2ccccc2)oc2c(OC)cccc2c1=O [3,8-dimethoxyflavone], MTT −0.252. Against it:
- COc1c2c(cc3occ(-c4ccc5c(c4)OCO5)c(=O)c13)OC(C)(C)C=C2 [methyl robustone, reference compound] — lower, −0.344
- CC(=O)O[C@]1(C)CC[C@@]23C[C@@H]1C(C)(C)[C@@H]2CC[C@H]3C [cedryl acetate] — higher, −0.176
- CC(C)C1COc2cc3oc(=O)ccc3cc2O1 (stereo not shown) [dihydro-obliquin] — lower, −0.661
- C[C@@H]1O[C@@H](O[C@H]2[C@H](Oc3cc(O)c4c(=O)cc(-c5ccc(O)cc5)oc4c3)O[C@H](CO)[C@@H](O)[C@@H]2O)[C@H](O)[C@H](O)[C@H]1O [rhoifolin] — lower, −0.683

These molecules were tested on cytochrome c. Conditions: normalized composite Z-score vs mock-treated (DMSO) wells; Conc 20 μM.
Assay type: cell-based, mouse

Point of comparison: CC(C)C1COc2cc3oc(=O)ccc3cc2O1 (stereo not shown) [dihydro-obliquin], cyt c −0.662. Against it:
- COc1c2c(cc3occ(-c4ccc5c(c4)OCO5)c(=O)c13)OC(C)(C)C=C2 [methyl robustone, reference compound] — higher, 0.373
- CC(=O)O[C@]1(C)CC[C@@]23C[C@@H]1C(C)(C)[C@@H]2CC[C@H]3C [cedryl acetate] — higher, 0.388
- C[C@@H]1O[C@@H](O[C@H]2[C@H](Oc3cc(O)c4c(=O)cc(-c5ccc(O)cc5)oc4c3)O[C@H](CO)[C@@H](O)[C@@H]2O)[C@H](O)[C@H](O)[C@H]1O [rhoifolin] — higher, 0.515
- COc1c(-c2ccccc2)oc2c(OC)cccc2c1=O [3,8-dimethoxyflavone] — higher, 0.361
